Data: ChEMBL document CHEMBL1137486, “N4-phenyl modifications of N2-(2-hydroxyl)ethyl-6-(pyrrolidin-1-yl)-1,3,5-triazine-2,4-diamines enhance glucocerebrosidase inhibition by small molecules with potential as chemical chaperones for Gaucher disease” (Bioorg Med Chem Lett, 2007)
Calls of active or inactive are those of the source. The rule behind the calls is not given here.

How the values were obtained:
[1] = target: T1, Lysosomal acid glucosylceramidase (Homo sapiens) (UniProt P04062); test: (§1) Inhibition of glucocerebrosidase
T1 sequence (whole entry): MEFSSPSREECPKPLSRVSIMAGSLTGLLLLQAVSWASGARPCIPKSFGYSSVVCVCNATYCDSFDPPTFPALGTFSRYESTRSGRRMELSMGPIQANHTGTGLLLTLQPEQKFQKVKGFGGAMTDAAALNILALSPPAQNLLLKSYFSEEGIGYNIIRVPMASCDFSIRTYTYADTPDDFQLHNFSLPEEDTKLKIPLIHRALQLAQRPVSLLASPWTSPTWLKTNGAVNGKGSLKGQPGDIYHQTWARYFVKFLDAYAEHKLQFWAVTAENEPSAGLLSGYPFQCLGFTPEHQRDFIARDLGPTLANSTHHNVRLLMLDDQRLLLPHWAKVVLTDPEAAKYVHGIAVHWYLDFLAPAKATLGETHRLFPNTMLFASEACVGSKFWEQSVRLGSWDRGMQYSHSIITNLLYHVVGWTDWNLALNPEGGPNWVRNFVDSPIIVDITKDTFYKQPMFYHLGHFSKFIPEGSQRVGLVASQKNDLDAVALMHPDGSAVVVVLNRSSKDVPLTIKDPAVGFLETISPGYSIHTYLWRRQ

[2] = target: T2, Lysosomal acid glucosylceramidase (Homo sapiens, UniProt P04062); test: as §1
T2 sequence (P04062 whole entry): T1 sequence (whole entry)

[3] = target: T3, Beta-hexosaminidase subunit alpha (Bos taurus) (UniProt Q0V8R6); test: Inhibition of bovine beta hexosaminidase upto 77 uM
T3 sequence (whole entry): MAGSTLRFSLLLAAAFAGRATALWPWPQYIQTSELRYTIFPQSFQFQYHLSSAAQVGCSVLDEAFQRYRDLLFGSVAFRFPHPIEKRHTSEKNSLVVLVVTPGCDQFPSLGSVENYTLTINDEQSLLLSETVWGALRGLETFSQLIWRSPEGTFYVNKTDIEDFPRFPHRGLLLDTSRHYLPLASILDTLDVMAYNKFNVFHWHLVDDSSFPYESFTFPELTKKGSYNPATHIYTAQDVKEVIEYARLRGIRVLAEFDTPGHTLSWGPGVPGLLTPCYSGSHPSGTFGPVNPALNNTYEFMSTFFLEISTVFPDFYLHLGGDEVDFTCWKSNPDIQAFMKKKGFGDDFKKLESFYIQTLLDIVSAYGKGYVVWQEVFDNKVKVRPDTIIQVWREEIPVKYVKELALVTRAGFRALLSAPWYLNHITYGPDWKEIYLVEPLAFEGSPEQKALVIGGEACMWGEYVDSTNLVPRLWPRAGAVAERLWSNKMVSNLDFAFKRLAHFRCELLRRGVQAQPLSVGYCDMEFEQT

[4] = target: Alpha-galactosidase (Coffea arabica) (UniProt Q5DUH8); test: Inhibition of coffee bean alpha galactosidase upto 77 uM
Chain of Alpha-galactosidase (Coffea arabica) (Q5DUH8 as listed by the source): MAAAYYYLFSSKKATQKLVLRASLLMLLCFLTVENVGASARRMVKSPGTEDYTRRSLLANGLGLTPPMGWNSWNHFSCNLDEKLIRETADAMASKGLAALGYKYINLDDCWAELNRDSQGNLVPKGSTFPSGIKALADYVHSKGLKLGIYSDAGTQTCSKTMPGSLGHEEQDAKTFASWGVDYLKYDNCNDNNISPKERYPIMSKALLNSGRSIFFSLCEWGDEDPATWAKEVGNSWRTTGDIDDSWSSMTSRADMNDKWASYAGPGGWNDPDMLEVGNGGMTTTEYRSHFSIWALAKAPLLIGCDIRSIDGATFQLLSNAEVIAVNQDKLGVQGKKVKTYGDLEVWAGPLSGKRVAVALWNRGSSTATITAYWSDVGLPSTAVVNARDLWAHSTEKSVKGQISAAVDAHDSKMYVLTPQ

Oryza sativa = test: Inhibition of rice alpha glucosidase upto 77 uM

SMILES	IC50 [2] [µM]	also measured
O=[N+]([O-])c1ccccc1Nc1nc(NCCO)nc(N2CCCC2)n1		Activity [1]: inactive
COc1ccc(Cl)cc1Nc1nc(NCc2ccco2)nc(N2CCCC2)n1		Activity [1]: inactive
COc1ccc(Cl)cc1Nc1nc(N)nc(N2CCCC2)n1		Activity [1]: inactive
CC(C)Oc1ccc(Cl)cc1Nc1nc(NCCO)nc(N2CCCC2)n1	3.44	
COc1ccccc1Nc1nc(NCCCCO)nc(N2CCCC2)n1		Activity [1]: inactive
COc1ccc(Cl)cc1Nc1nc(NCCO)nc(N2CCCCC2)n1	31.1	
COc1ccccc1Nc1nc(NCC(C)O)nc(N2CCCC2)n1 (configuration not stated)	20.7	
COc1ccc(-c2ccccc2)cc1Nc1nc(NCCO)nc(N2CCCC2)n1	2.22	
CCOc1ccccc1Nc1nc(NCCO)nc(N2CCCC2)n1	0.77	
CCN(CC)c1nc(NCCO)nc(Nc2cc(Cl)ccc2OC)n1		Activity [1]: inactive
COC(=O)CNc1nc(Nc2ccccc2OC)nc(N2CCCC2)n1		Activity [1]: inactive
COc1ccc(Nc2nc(NCCO)nc(N3CCCC3)n2)c(OC)c1	4.9	
CC(=O)Nc1ccccc1Nc1nc(NCCO)nc(N2CCCC2)n1		Activity [1]: inactive
OCCNc1nc(Nc2cccc(Cl)c2)nc(N2CCCC2)n1	6.69	
NC(=O)c1ccccc1Nc1nc(NCCO)nc(N2CCCC2)n1		Activity [1]: inactive
COc1ccccc1Nc1nc(NCC(N)=O)nc(N2CCCC2)n1		Activity [1]: inactive

SMILES	IC50 [2] [µM]	also measured
CC(C)(C)Oc1ccc(Cl)cc1Nc1nc(NCCO)nc(N2CCCC2)n1	1.04	
COc1ccccc1Nc1nc(NCC(O)Cc2ccccc2)nc(N2CCCC2)n1 (configuration not stated)	6.8	
Cc1ccc(Nc2nc(NCCO)nc(N3CCCC3)n2)cc1	10	
COc1ccccc1Nc1nc(NCCNC(C)=O)nc(N2CCCC2)n1		Activity [1]: inactive
OCCNc1nc(Nc2ccccc2Oc2ccccc2)nc(N2CCCC2)n1	21.7	
Cc1cccc(Nc2nc(NCCO)nc(N3CCCC3)n2)c1	6.19	
COCCNc1nc(Nc2cc(Cl)ccc2OC)nc(N2CCCC2)n1		Activity [1]: inactive
OCCNc1nc(Nc2ccccc2O)nc(N2CCCC2)n1	2	
COc1ccccc1Nc1nc(NCCO)nc(N2CCCC2)n1	1.08	
COc1ccc(Cl)cc1Nc1nc(NCc2ccccc2)nc(N2CCCC2)n1		Activity [1]: inactive
COc1ccc(Cl)cc1Nc1nc(N(CCO)CCO)nc(N2CCCC2)n1		Activity [1]: inactive
COc1ccc(Cl)cc1Nc1nc(NCCO)nc(N2CCCCCC2)n1		Activity [1]: inactive
CCOc1ccc(Cl)cc1Nc1nc(NCCO)nc(N2CCCC2)n1	0.96	
OCCNc1nc(Nc2ccccc2OCc2ccccc2)nc(N2CCCC2)n1	31.4	
CC(C)(C)Oc1ccccc1Nc1nc(NCCO)nc(N2CCCC2)n1	0.33	Activity [3]: inactive; Activity [4]: inactive; Activity (Oryza sativa): inactive

Further lines, with some results ahead:

IC50 [2] [µM]	SMILES	also measured
6.1	CCCCNc1nc(NCCO)nc(Nc2ccccc2OC)n1	
0.37	OCCNc1nc(Nc2cc(-c3ccccc3)ccc2O)nc(N2CCCC2)n1	
0.73	OCCNc1nc(Nc2cc(Cl)ccc2O)nc(N2CCCC2)n1	
18.8	COc1ccccc1Nc1nc(NCCO)nc(NCc2ccccc2)n1	
7.75	COc1ccccc1Nc1nc(NCCO)nc(N2CCC(F)(F)C2)n1	
2.65	COc1ccc(C(F)(F)F)cc1Nc1nc(NCCO)nc(N2CCCC2)n1	
1.53	COc1ccc(OC)c(Nc2nc(NCCO)nc(N3CCCC3)n2)c1	
2.31	COc1ccccc1Nc1nc(NCCO)nc(N2CCC2)n1	
3.94	Cc1ccccc1Nc1nc(NCCO)nc(N2CCCC2)n1	
8.8	COc1ccc(Nc2nc(NCCO)nc(N3CCCC3)n2)cc1	
29	OCCNc1nc(Nc2ccccc2Cl)nc(N2CCCC2)n1	
6.34	OCCNc1nc(Nc2ccc(Cl)cc2)nc(N2CCCC2)n1	
12.1	COc1ccc(Cl)cc1Nc1nc(NCCO)nc(N2CCOCC2)n1	
16.5	OCCNc1nc(Nc2ccccc2)nc(N2CCCC2)n1	
2.39	CSc1ccccc1Nc1nc(NCCO)nc(N2CCCC2)n1	
7.77	CCCCNc1nc(Nc2cc(Cl)ccc2OC)nc(N2CCCC2)n1	
8.25	COc1cccc(Nc2nc(NCCO)nc(N3CCCC3)n2)c1	
3.34	OCCNc1nc(Nc2ccccc2OC(F)(F)F)nc(N2CCCC2)n1	
